This assay deals with T1, YbfA (Escherichia coli, UniProt P0AAU2).
T1 construct: recombinant 6xHis-tagged YbfA (pET28a), ybfA gene cloned from E. coli W3110
Nature of the assay: isothermal titration calorimetry (ITC), […] °C. Type of assay: binding. (ITC needs no label: the signal is the heat of the interaction.)

T1 sequence (P0AAU2 22-68): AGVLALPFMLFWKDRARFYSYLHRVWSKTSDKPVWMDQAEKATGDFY

Regarding `OCCc1ccc(O)cc1` [tyrosol], the Kd (in general, a measure of binding affinity in units of concentration) was 4.65 ± 0.11 µM.

Values taken from publication PMC11227560, “Tyrosol blocks E. coli anaerobic biofilm formation via YbfA and FNR to increase antibiotic susceptibility” (Nature Communications, 2024).
